Values quoted from earlier work, collected in patent US6537592B2, “Extracts of kava-kava” (Kava Pharmaceuticals, Inc., priority 2000, dated 2003).

Settings: at 21° C., water

In the case of `COC1=CC(=O)O[C@@H](/C=C/c2ccccc2)C1` [kawain], the maximum solubility is given as “about 2.2 mg/100 ml water”.
